These results are taken from ChEMBL document CHEMBL3621073, “Bile acid amphiphiles with tunable head groups as highly selective antitubercular agents” (Medchemcomm, 2014).

By MIC99 is commonly meant the lowest concentration that inhibits either 99% of growth or 99% of the strains tested, depending on the study. As a reminder, the IC50 is the midpoint of a concentration-inhibition curve. A high value points to weaker potency.

≈ marks a conversion by molar mass, not a printed value.

Data set [1] has as its system Mycolicibacterium smegmatis. The data set can be described thus: Antimycobacterial activity against Mycobacterium smegmatis str. MC2 155 after 2 days by inverted microscopic analysis. The class given is functional. The conditions noted are these: str. MC2 155, 48 h.
Data set [2] has as its system A549. The data set can be described thus: Cytotoxicity against human A549 cells after 48 hrs by MTT assay. It counts as cell-based. The conditions noted are these: A549, 48 h. For orientation: Tetrazolium dyes change colour on reduction, which living cells bring about.
Data set [3] has as its system Staphylococcus aureus. The data set can be described thus: Antibacterial activity against Staphylococcus aureus MTCC 737 after 12 hrs by microplate reader assay. It counts as functional. The conditions noted are these: MTCC 737, 12 h.
The test system of data set [4] is Escherichia coli. The data set can be described thus: Antibacterial activity against Escherichia coli MTCC 443 after 12 hrs by microplate reader assay. It counts as functional. As to conditions: MTCC 443, 12 h.
Data set [5] concerns THP-1. The data set can be described thus: Cytotoxicity against human THP1 cells after 48 hrs by MTT assay. The class given is cell-based. As to conditions: THP-1, 48 h.
The nature of data set [6]: Therapeutic index, ratio of MHC50 for sheep RBC to MIC99 for Mycobacterium tuberculosis H37Rv. As to conditions: sheep red blood cells, read-out: TI.
In data set [7] the test system is Mycobacterium tuberculosis. The data set can be described thus: Antimycobacterial activity against Mycobacterium tuberculosis H37Rv after 14 days by inverted microscopic analysis. The conditions noted are these: 336 h. It counts as functional.
A short description of data set [8]: Therapeutic index, ratio of MHC50 for chicken RBC to MIC99 for Mycobacterium tuberculosis H37Rv. The conditions noted are these: chicken red blood cells, read-out: TI.
The test system of data set [9] is A549. The data set can be described thus: Cytotoxicity against human A549 cells assessed as effect on cell cycle phase at 100 uM by propidium iodide staining-based flow cytometry. The conditions noted are these: a549, 100 µM.

On to `COC(=O)CC[C@@H](C)[C@H]1CC[C@H]2[C@@H]3CC[C@@H]4C[C@H](OC(=O)C[n+]5ccccc5)CC[C@]4(C)[C@H]3CC[C@]12C`, for which the MIC99 in data set [1] was 25 µM; in data set [3], greater than 512 µM; in [4], greater than 512 µM; in data set [7] it was greater than 50 µM. The values for the IC50 in [2] and in data set [5] were 68 µM and 89 µM, respectively. The selectivity ratio in [6] and in data set [8] was less than 20 throughout.

For `COC(=O)CC[C@@H](C)[C@H]1CC[C@H]2[C@@H]3CC[C@@H]4C[C@H](OC(=O)C[n+]5ccc(N(C)C)cc5)CC[C@]4(C)[C@H]3CC[C@]12C`, the MIC99 in [1] is 12.5 µM; in [3] it was greater than 512 µM; in data set [4] it was greater than 512 µM; in data set [7], 50 µM. Besides, the IC50 amounted to 112 µM in [2] and 86 µM in [5]. In addition, the selectivity ratio in [6] and in data set [8] was greater than 20 throughout.

For `COC(=O)CC[C@@H](C)[C@H]1CC[C@H]2[C@@H]3CC[C@@H]4C[C@H](OC(=O)CN)CC[C@]4(C)[C@H]3C[C@H](OC(=O)CN)[C@]12C`, the MIC99 in [1] was greater than 50 µM; in data set [3] it was 64 µM (≈ 33.3 µg/mL); in data set [4], 16 µM (≈ 8.33 µg/mL); in [7], greater than 50 µM. Moreover, the IC50 in data set [2] was determined as 14.7 µM; in data set [5], 14 µM. In addition, the selectivity ratio in data set [6] and in [8] was less than 20 throughout.

In the case of `COC(=O)CC[C@@H](C)[C@H]1CC[C@H]2[C@@H]3CC[C@@H]4C[C@H](OC(=O)C[N+]5(C)CCCCC5)CC[C@]4(C)[C@H]3CC[C@]12C`, the MIC99 in data set [1] is 6.25 µM; in [3], greater than 512 µM; in [4] it was greater than 512 µM; in data set [7] it was 50 µM. Also, the IC50 was 42 µM in [2] and 77 µM in data set [5]. The selectivity ratio in data set [6] and in data set [8] was greater than 20 each time.

Regarding `COC(=O)CC[C@@H](C)[C@H]1CC[C@H]2[C@@H]3[C@H](OC(=O)C[N+](C)(C)C)C[C@@H]4C[C@H](OC(=O)C[N+](C)(C)C)CC[C@]4(C)[C@H]3CC[C@]12C`, the MIC99 in data set [1] turned out to be 3.12 µM; in data set [3], 512 µM; in data set [4], 256 µM; in [7], 12.5 µM. Besides, the values for the IC50 in data set [2] and in data set [5] were 144 µM and 142 µM, respectively. Besides, the selectivity ratio in data set [6] and in [8] was greater than 80 in each case.

For `COC(=O)CC[C@@H](C)[C@H]1CC[C@H]2[C@@H]3[C@H](OC(=O)C[n+]4ccc(N(C)C)cc4)C[C@@H]4C[C@H](OC(=O)C[n+]5ccc(N(C)C)cc5)CC[C@]4(C)[C@H]3CC[C@]12C`, the MIC99 in data set [1] was found to be 0.78 µM; in data set [3], 128 µM; in [4], 128 µM; in data set [7], 3.12 µM. Besides, the IC50 in [2] stood at 154 µM; in data set [5], 137 µM. The selectivity ratio in data set [6] and in [8] was greater than 320 each time.

Take `C[C@H](CCC(=O)O)[C@H]1CC[C@H]2[C@@H]3[C@H](O)C[C@@H]4C[C@H](O)CC[C@]4(C)[C@H]3C[C@H](O)[C@]12C` [CHOLIC ACID]: the Activity entry in data set [9] was “Non-toxic”.

As to `COC(=O)CC[C@@H](C)[C@H]1CC[C@H]2[C@@H]3[C@H](OC(=O)C[N+]4(C)CCCCC4)C[C@@H]4C[C@H](OC(=O)C[N+]5(C)CCCCC5)CC[C@]4(C)[C@H]3CC[C@]12C`, the MIC99 worked out at 1.56 µM in data set [1], 256 µM in data set [3], 128 µM in data set [4] and 12.5 µM in data set [7]. In addition, the IC50 in data set [2] worked out at 79 µM; in data set [5], 164 µM. The selectivity ratio in [6] and in data set [8] was greater than 80 in each case.

In the case of `COC(=O)CC[C@@H](C)[C@H]1CC[C@H]2[C@@H]3CC[C@@H]4C[C@H](OC(=O)C[n+]5ccc(N(C)C)cc5)CC[C@]4(C)[C@H]3C[C@H](OC(=O)C[n+]3ccc(N(C)C)cc3)[C@]12C`, the MIC99 stood at 0.78 µM in data set [1], 64 µM in data set [3], 64 µM in data set [4] and 4.68 µM in data set [7]. For the same molecule, the IC50 in data set [2] was determined as 50 µM; in [5] it was 63 µM. Also, the selectivity ratio in data set [6] and in [8] was greater than 213 throughout.

`COC(=O)CC[C@@H](C)[C@H]1CC[C@H]2[C@@H]3[C@H](OC(=O)C[n+]4ccccc4)C[C@@H]4C[C@H](OC(=O)C[n+]5ccccc5)CC[C@]4(C)[C@H]3CC[C@]12C`: the MIC99 stood at 3.12 µM in data set [1], 256 µM in data set [3], 128 µM in data set [4] and 25 µM in data set [7]. Also, the IC50 was 168 µM in data set [2] and greater than 200 µM in data set [5]. Besides, the selectivity ratio in data set [6] and in [8] was greater than 40 throughout.

As for `COC(=O)CC[C@@H](C)[C@H]1CC[C@H]2[C@@H]3[C@H](OC(=O)CN)C[C@@H]4C[C@H](OC(=O)CN)CC[C@]4(C)[C@H]3CC[C@]12C`, the MIC99 is greater than 50 µM in [1], 128 µM (≈ 66.7 µg/mL) in [3], 64 µM (≈ 33.3 µg/mL) in data set [4] and greater than 50 µM in data set [7]. Further, the IC50 in [2] turned out to be 14.8 µM; in [5], 13.7 µM. Moreover, the selectivity ratio in data set [6] and in data set [8] was less than 20 each time.

As to `COC(=O)CC[C@@H](C)[C@H]1CC[C@H]2[C@@H]3[C@H](OC(=O)C[n+]4ccccc4)C[C@@H]4C[C@H](OC(=O)C[n+]5ccccc5)CC[C@]4(C)[C@H]3C[C@H](OC(=O)C[n+]3ccccc3)[C@]12C.[Cl-].[Cl-].[Cl-]`, the Activity entry in [9] was “Non-toxic”. For the same molecule, the MIC99 in data set [1] is 3.12 µM; in data set [3], greater than 512 µM; in data set [4], greater than 512 µM; in [7] it was 37.5 µM. Besides, the concentration for half-maximal inhibition (IC50) in [2] and in data set [5] was greater than 200 µM in each case. In addition, the selectivity ratio in data set [6] and in data set [8] was greater than 26 each time.

Turning to `COC(=O)CC[C@@H](C)[C@H]1CC[C@H]2[C@@H]3CC[C@@H]4C[C@H](OC(=O)C[N+](C)(C)C)CC[C@]4(C)[C@H]3CC[C@]12C`, the MIC99 in [1] is 6.25 µM; in data set [3], greater than 512 µM; in data set [4] it was greater than 512 µM; in data set [7], 50 µM. The 50% inhibitory concentration (IC50) was found to be 69 µM in data set [2] and 62 µM in [5]. The selectivity ratio in data set [6] and in [8] was greater than 20 in each case.

On to `NNC(=O)c1ccncc1` [ISONIAZID], for which the MIC99 was greater than 50 µM in [1] and 0.78 µM (≈ 0.107 µg/mL) in [7].

On to `COC(=O)CC[C@@H](C)[C@H]1CC[C@H]2[C@@H]3CC[C@@H]4C[C@H](OC(=O)C[N+]5(C)CCCCC5)CC[C@]4(C)[C@H]3C[C@H](OC(=O)C[N+]3(C)CCCCC3)[C@]12C`, for which the MIC99 in data set [1] is 0.78 µM; in data set [3], 128 µM; in data set [4] it was greater than 512 µM; in data set [7], 6.25 µM. For the same molecule, the IC50 was determined as 50 µM in data set [2] and 77 µM in data set [5]. The selectivity ratio in data set [6] and in data set [8] was greater than 160 each time.

On to `C[C@H]1COc2c(N3CCN(C)CC3)c(F)cc3c(=O)c(C(=O)O)cn1c23` [LEVOFLOXACIN], for which the MIC99 is 0.58 µM (≈ 0.21 µg/mL) in [1] and 0.78 µM (≈ 0.282 µg/mL) in [7].

On to `COC(=O)CC[C@@H](C)[C@H]1CC[C@H]2[C@@H]3CC[C@@H]4C[C@H](OC(=O)C[N+](C)(C)C)CC[C@]4(C)[C@H]3C[C@H](OC(=O)C[N+](C)(C)C)[C@]12C`, for which the MIC99 is 12.5 µM in [1], 256 µM in data set [3], 256 µM in data set [4] and greater than 50 µM in [7]. In addition, the IC50 in data set [2] came to 157 µM; in data set [5], 105 µM. The selectivity ratio in data set [6] and in [8] was less than 20 each time.

With `COC(=O)CC[C@@H](C)[C@H]1CC[C@H]2[C@@H]3[C@H](OC(=O)C[N+]4(C)CCCCC4)C[C@@H]4C[C@H](OC(=O)C[N+]5(C)CCCCC5)CC[C@]4(C)[C@H]3C[C@H](OC(=O)C[N+]3(C)CCCCC3)[C@]12C.[Cl-].[Cl-].[Cl-]`, the Activity entry in [9] is listed as “Non-toxic”. Besides, the MIC99 in data set [1] is 6.25 µM; in [3], 512 µM; in data set [4], greater than 512 µM; in data set [7], 25 µM. The IC50 in data set [2] and in data set [5] was greater than 200 µM in each case. The selectivity ratio in [6] and in data set [8] was greater than 40 throughout.

Regarding `COC(=O)CC[C@@H](C)[C@H]1CC[C@H]2[C@@H]3CC[C@@H]4C[C@H](OC(=O)CN)CC[C@]4(C)[C@H]3CC[C@]12C`, the MIC99 in data set [1] was greater than 50 µM; in [3], greater than 512 µM; in [4], greater than 512 µM; in [7], greater than 50 µM. Also, the IC50 in [2] amounted to 24.6 µM; in data set [5], 14 µM. Besides, the selectivity ratio in data set [6] and in data set [8] was less than 20 each time.

On to `COC(=O)CC[C@@H](C)[C@H]1CC[C@H]2[C@@H]3CC[C@@H]4C[C@H](OC(=O)C[n+]5ccccc5)CC[C@]4(C)[C@H]3C[C@H](OC(=O)C[n+]3ccccc3)[C@]12C`, for which the MIC99 is 1.56 µM in data set [1], greater than 512 µM in data set [3], 128 µM in data set [4] and 12.5 µM in [7]. The IC50 in data set [2] came out at 78 µM; in [5], 124 µM. Also, the selectivity ratio in data set [6] and in [8] was greater than 80 in each case.
